Measured values: patent publication US20260218126A1, “METHOD FOR PRODUCING RETINAL TISSUE” (RACTHERA CO., LTD., priority 2023, published 2026)

Assays:
Format in all cases: cell-based
[1] = system: KhES-1_Rx::Venus cells; experiment: Retinal differentiation induction with or without LDN-193189 addition (GFP and Chx10 expression)
Description: • 1. KhES-1_Rx::Venus cells (KhES-1 cells obtained by knocking a GFP variant called Venus in the locus of a retinal marker Rx) that reached optimal confluence were collected by removing the medium and washed twice with 1 mL of PBS (−). • 2. The cells were incubated at 37° C. and 5% CO2 with 0.5×TrypLE™ Select added at 500 μL/well. • 3. After the 0.5×TrypLE™ Select was removed, PBS (−) was added to the well at 2 mL/well and the cells were peeled off by spraying PBS (−). • 4. The cells were collected into a 15 mL Falcon tube and the cell number was counted. • 5. The required number of cells (5×10^5 cells per dish) was transferred to another tube and centrifuged at 1000 rpm at 20° C. for 5 minutes. • 6. After the supernatant was removed, the cells were suspended with AK02N+Y to provide a cell suspension of 5×10^5 cells/200 μL AK02N+Y. • 7. The iMatrix coating solution within the PDMS sheet was removed with an aspirator and the cell suspension (5×10^5 cells/200 μL AK02N+Y) was added to the circle and incubated at 37° C. for 30 minutes. • 8. The PDMS sheet was removed from the dish with sterilized tweezers. • 9. The cells was cultured at 37° C. and 5% CO2 with 300 μL of AK02 N+Y added to the dish. <Day 1: Medium Replacement with AK02+PS> • 1. The whole medium was replaced with 1 mL of gfCDM (10% KSR) containing LDN-193189 (04-0074-02, ReproCELL Inc.) (hereinafter referred to as LDN). (final concentration of 100 nM LDN). […] Expressions of Chx10, Recoverin, FOXG1, Crx, Tuj1, Zo-1, and Pax6 were evaluated by immunostaining with primary antibodies specific for the respective markers and secondary antibodies suitable for the primary antibodies. The effect of LDN-193189, a BMP signaling inhibitor, on the differentiation induction was evaluated. […] Also, expressions of GFP and Chx10 at Day 18 were evaluated in the patterned and non-patterned cells with or without the LDN-193189 addition. The Chx10 expression was assessed by quantitative PCR (using HPRT1 as an endogenous control) and immunostaining.

[2] = system: human iPS cells (LPF11 line); experiment: Duration of action of Y-27632 at cell seeding in patterning culture (LPF11 line); details: for percentage of Chx10-positive areas on the sheet surface: ImageJ
Description: The percentage of area covered by a retinal tissue on the region A may be measured by any methods, and for example, can be measured by staining the retinal tissue. For example, it is measured by staining expression of the retinal cell marker described above (such as Chx10) (e.g., by immunostaining with a fluorescently labeled anti-Chx10 antibody). Then, by using imaging software such as ImageJ software (NIH), the ratio of the area of the retinal cell marker-positive region to the area of the region A can be calculated.
(§1) For patterning, a droplet (1 cm in diameter) of a solution containing 0.785 μl of Laminin511-E8 (Nippi. Inc.) in 100 μl of PBS (Laminin51l-E8 concentration of 3.925 ng/μl) was made in the center of the wells of a 12-well plate (Iwaki, for cell culture, culture area 3.8 cm^2) and then incubated at 37° C. or room temperature for 1 to 3 hours to prepare 12-well-plates for patterning culture (Laminin511-E8: 0.5 μg/cm^2).
(§2) First, a 12-well plate for patterning culture prepared by the method described in Example 1 was provided, and subconfluent human iPS cells (LPF11 and DSP-SQ lines) were washed with PBS and dispersed into single cells using TrypLE Select (Life Technologies). The human iPS cells dispersed into single cells were then seeded into one well of the patterning culture plate at a density of 2.0×10^5 cells/cm^2 and cultured under feeder-free condition in Stemfit medium in the presence of Y-27632 (ROCK inhibitor, 10 μM). Then, after 2, 4, 8, 16, or 32 hours culture, the medium was replaced with 2 ml of StemFit medium without Y-27632.
(§3) The patterning culture was then performed as described in Example 1, and on Day 20 of seeding, cells were fixed with 4% paraformaldehyde and bright-field images were obtained with a fluorescence microscope (Keyence). […] The percentage of Chx10-positive areas on the sheet surface was calculated using ImageJ software (NIH) and was 91% for sheets with Y-27632 for 32 hours, compared to 97% or more for sheets with Y-27632 for 16 hours or less (16 hours: 97%, 8 hours: 99%, 4 hours: 98%, 2 hours: 99%).

[3] = system: human iPS cells (DSP-SQ line); experiment: Duration of action of Y-27632 at cell seeding in patterning culture (DSP-SQ line); details: shortening the duration of action of Y-27632; Day 20; immunostaining
Description: as §1
First, a 12-well plate for patterning culture prepared by the method described in Example 1 was provided, and subconfluent human iPS cells (LPF11 and DSP-SQ lines) were washed with PBS and dispersed into single cells using TrypLE Select (Life Technologies). […]
as §3

[4] = system: human iPS cells (LPF11 line); experiment: BMP4 concentration for retinal differentiation by patterning culture (Rx immunostaining, real-time PCR); details: Day 20
Description: as §2, with “line)” for “and DSP-SQ lines)”, “Two” for “Then, after 2, 4, 8, 16, or 32”, “later,” for “culture,”, “Y-27632 and patterning culture was performed as described in Example 1.” for “Y-27632.”
On Day 7 of patterning culture, the medium was replaced with serum-free medium (gfCDM+KSR) containing exogenous human recombinant BMP4 (R&D) at a final concentration of 0, 1.5, 3, 6, or 12 nM. Thereafter, half of the medium was replaced with serum-free medium (gfCDM+KSR) without human recombinant BMP4 every 2 to 3 days. […]
Total RNA was then extracted from the retinal tissue using a spin column (QIAGEN, RNeasy Micro kit) by the method described in the kit. The concentration of total RNA was measured by a measuring device (Nanodrop, Thermo scientific) and then reverse transcribed into cDNA using reverse transcriptase and primers (Reverse Transcription Master Mix Kit, Fluidigm). […] The Pre-Run reaction solutions were then injected into a flow-through multi-well (96. 96 Dynamic Array IFC, Fluidigm) using an IFC Controller HX (Fluidigm), and the expression levels of marker genes for neural retina and for by-products other than neural retina were determined by real-time PCR using a multi-sample real-time PCR system (Biomark HD, Fluidigm).
Specifically, the ΔCt value was calculated from the difference between the Ct value of the target gene and the Ct value of GAPDH, the gene used as the internal standard, and the ratio of expression level of each gene was calculated from the difference in ΔCt between samples (ΔΔCt).

## c1ccc2c(-c3cnn4cc(-c5ccc(N6CCNCC6)cc5)cnc34)ccnc2c1 [LDN-193189, 4-[6-(4-Piperazin-1-ylphenyl)pyrazolo[1,5-a]pyrimidin-3-yl]quinoline]
[1]; Day 11, patterning culture, LDN-193189 100 nM from Day 3 to Day 8, compared to cells without LDN-193189
  GFP expression: uniform GFP expression
[1]; Day 18, without patterning culture, quantitative PCR (HPRT1 control) and immunostaining, with vs without LDN-193189 addition
  Chx10 expression: increased
[1]; Day 18, without patterning culture, with vs without LDN-193189 addition
  GFP expression: increased

## C[C@@H](N)[C@H]1CC[C@H](C(=O)Nc2ccncc2)CC1 [Y-27632]
[2]; Y-27632 10 μM for 2, 4, 8, 16 or 32 hours, LPF11 and DSP-SQ lines
  survival of human iPS cells after removing Y-27632: survived
[2]; Y-27632 10 μM for 2 hours, Day 20
  percentage of Chx10-positive areas on the sheet surface: 99%
[2]; Y-27632 10 μM for 4 hours, Day 20
  percentage of Chx10-positive areas on the sheet surface: 98%
[2]; Y-27632 10 μM for 8 hours, Day 20
  percentage of Chx10-positive areas on the sheet surface: 99%
[2]; Y-27632 10 μM for 16 hours or less, Day 20
  percentage of Chx10-positive areas on the sheet surface: ≥ 97%
[2]; Y-27632 10 μM for 16 hours, Day 20
  percentage of Chx10-positive areas on the sheet surface: 97%
[2]; Y-27632 10 μM for 32 hours, Day 20
  percentage of Chx10-positive areas on the sheet surface: 91%
[2]; longer duration of action of Y-27632 (2 to 32 hours), Day 20, bright-field
  holes on the cell sheet surface: the more holes were created
[3]
  Chx10-negative areas on the sheet surface: fewer Chx10-negative areas

B1: BMP4: human recombinant BMP4 (R&D), BMP signaling activator (protein, UniProt P12644 293-408, looked up)
Bone morphogenetic protein 4: SPKHHSQRARKKNKNCRRHSLYVDFSDVGWNDWIVAPPGYQAFYCHGDCPFPLADHLNSTNHAIVQTLVNSVNSSIPKACCVPTELSAISMLYLDEYDKVVLKNYQEMVVEGCGCR
[4]; BMP4 3 to 12 nM compared to 1.5 nM
  expression of retinal progenitor cell marker Rx (immunostaining): more strongly expressed
[4]; BMP4 3 to 12 nM compared to 1.5 nM, GAPDH internal standard
  expression of retinal progenitor cell marker genes Chx10 and Rx (relative mRNA, real-time PCR): higher expression
[4]; BMP4 3 to 12 nM
  expression of Emx2, marker gene for unintended cells (relative mRNA, real-time PCR): low and suppressed expression
